In PMC6035379 (Journal of Ginseng Research, 2017):
Where a name gives a salt, the structure may show the parent alone.

What was measured:
[1] = assay type: in vivo; details: rats; fexofenadine 10 mg/kg oral; control group without KRG
CYP1A1 = details: HepG2 cells; cited from earlier work
CYP2C19 = details: cited from earlier work
CYP3A4 = details: cited from earlier work
CYP2D6 = details: cited from earlier work
CYP2C9 = details: cited from earlier work
drug-resistant KBV cells = details: cited from earlier work
P-gp = details: cited from earlier work

For `CC(C)(C(=O)O)c1ccc(C(O)CCCN2CCC(C(O)(c3ccccc3)c3ccccc3)CC2)cc1` (stereo not drawn) [fexofenadine, Fexofenadine hydrochloride], the “mean maximum concentration of fexofenadine” value [1] was 32 ng/mL.
For `CC(C)=CCC[C@](C)(O[C@@H]1O[C@H](CO[C@@H]2OC[C@H](O)[C@H](O)[C@H]2O)[C@@H](O)[C@H](O)[C@H]1O)[C@H]1CC[C@]2(C)[C@@H]1[C@H](O)C[C@@H]1[C@@]3(C)CC[C@H](O[C@@H]4O[C@H](CO)[C@@H](O)[C@H](O)[C@H]4O[C@@H]4O[C@H](CO)[C@@H](O)[C@H](O)[C@H]4O)C(C)(C)[C@@H]3CC[C@]12C` [ginsenoside Rb2], the “mRNA level of CYP1A1” value (CYP1A1) is listed as “significantly increased”.
In the case of `CC(C)=CCC[C@](C)(O[C@@H]1O[C@H](CO)[C@@H](O)[C@H](O)[C@H]1O)[C@H]1CC[C@]2(C)[C@@H]1[C@H](O)C[C@@H]1[C@@]3(C)CC[C@H](O[C@@H]4O[C@H](CO)[C@@H](O)[C@H](O)[C@H]4O[C@@H]4O[C@H](CO)[C@@H](O)[C@H](O)[C@H]4O)C(C)(C)[C@@H]3CC[C@]12C` [ginsenoside Rd], the “inhibition of CYP2C19” value (CYP2C19) is listed as “weak inhibition”, the “inhibition of CYP3A4” value (CYP3A4) is listed as “weak inhibition” and the “inhibition of CYP2D6” value (CYP2D6) is listed as “weak inhibition”. The “inhibition of CYP2C9” value (CYP2C9) was “weak inhibition”.
In the case of `CC(C)=CCC[C@](C)(O[C@@H]1O[C@H](CO)[C@@H](O)[C@H](O)[C@H]1O)[C@H]1CC[C@]2(C)[C@@H]1[C@H](O)C[C@@H]1[C@@]3(C)CC[C@H](O)C(C)(C)[C@@H]3[C@@H](O[C@@H]3O[C@H](CO)[C@@H](O)[C@H](O)[C@H]3O)C[C@]12C` [ginsenoside Rg1], the “mRNA level of CYP1A1” value (CYP1A1) is listed as “significantly increased”.
For `CC(C)=CCC[C@](C)(O)[C@H]1CC[C@]2(C)[C@@H]1[C@H](O)C[C@@H]1[C@@]3(C)CC[C@H](O[C@@H]4O[C@H](CO)[C@@H](O)[C@H](O)[C@H]4O[C@@H]4O[C@H](CO)[C@@H](O)[C@H](O)[C@H]4O)C(C)(C)[C@@H]3CC[C@]12C` [ginsenoside Rg3], the “(3H) vinblastine efflux” value (drug-resistant KBV cells) is listed as “inhibited”.
In the case of `Cc1ncc2n1-c1ccc(Cl)cc1C(c1ccccc1F)=NC2` [midazolam], the “transport by P-gp” value (P-gp) is listed as “not transported”.
